Source: article PMC8002983, “Mammalian Arginase Inhibitory Activity of Methanolic Extracts and Isolated Compounds from Cyperus Species” (Molecules, 2021)

Tested on: aortic rings from adjuvant induced-arthritis rats
Experiment: ex vivo acetylcholine-induced relaxation in isolated aortic rings from arthritic rats
Set-up: species or system rat
Conditions: day 33 post-immunization, phenylephrine 10^−6 mol/L preconstriction, nor-NOHA 10^−4 mol/L, extract 2.6 10^−3 mg/mL
Method: This part of the experiment was performed on 15 male Lewis rats (6 weeks old), purchased from JanvierLabs (Le Genest Saint Isle, France). The experimental procedures were approved by the local ethics committee for animal experimentation No. 2015/001-CD/5PR of Franche-Comté University (Besançon, France) and complied with the “Animal Research: Reporting In Vivo Experiments” (ARRIVE) guidelines.
Arthritis was induced by a single intradermal injection to the tail of 120 μL of 10 mg·ml^−1 heat-killed Mycobacterium butyricum suspended in Freund’s incomplete adjuvant, as described previously. Non-arthritic age-matched rats were used as controls and received saline at the base of the tail.
At 33 days post-immunization, corresponding to the acute phase of arthritis, the rats were anesthetized using sodium pentobarbital 60 mg/kg (Ceva Santé Animale, France). The descending thoracic aorta was excised and carefully cleaned for vascular study as previously described. […] To assess the effect of arginase inhibitors, experiments were repeated in the presence of nor-NOHA (10^−4 M) and C. thunbergii extract (at EC50 obtained by in vitro test), respectively.

SMILES	effect on depressed Ach-induced endothelium-dependent relaxation (endothelial dysfunction)
N=C(NO)NCC[C@H](N)C(=O)O [nor-NOHA, Nω-hydroxy-nor-L-arginine]	relaxation was higher

Biological target: T1, purified liver bovine arginase (b-ARGI) (Bos taurus, UniProt Q2KJ64)
T1 construct: purified liver bovine arginase 1, which was purchased from MP Biomedicals; purchased MP Biomedicals (Illkirch-Graffenstaden, France); host or cells: bovine liver (tissue-purified)
T1 sequence (Q2KJ64 1-322): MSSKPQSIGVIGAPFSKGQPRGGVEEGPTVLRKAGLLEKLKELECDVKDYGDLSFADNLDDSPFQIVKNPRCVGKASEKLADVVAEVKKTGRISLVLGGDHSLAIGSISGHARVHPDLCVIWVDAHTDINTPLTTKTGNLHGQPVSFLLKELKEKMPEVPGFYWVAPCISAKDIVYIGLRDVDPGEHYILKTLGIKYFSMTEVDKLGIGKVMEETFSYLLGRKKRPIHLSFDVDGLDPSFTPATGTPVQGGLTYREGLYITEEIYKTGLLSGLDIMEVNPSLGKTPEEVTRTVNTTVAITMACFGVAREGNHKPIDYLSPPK
Experiment: not given
Set-up: method as in PMID 27776374, PMID 28837342
Conditions: mammalian arginase; read-out: Arginase inhibition IC50 of natural inhibitor piceatannol; cited from earlier work

SMILES	IC50 [µM]
Oc1cc(O)cc(/C=C/c2ccc(O)c(O)c2)c1 [piceatannol]	12.6

Biological target: T1, purified liver bovine arginase (b-ARGI)
Experiment: in vitro arginase inhibitory assay (colorimetric urea detection)
Assay type: biochemical
Conditions: means ± SEM, three distinct experiments in triplicate, read-out: Arginase Inhibition, IC50
Method: The amount of urea produced by the hydrolysis of L-arginine by arginase (purified liver bovine arginase (b-ARGI)) can be detected using a color reactant (α-isonitrosopropiophenone) followed by a colorimetric assay, as described below. In each well of a 96-well microplate, the solutions were added in the following order: (1) buffer containing Tris-HCl (50 mM, pH 7.5) and 0.1% of bovine serum albumin (TBSA buffer) (10 μL), with or without (control) arginase (0.025 U/μL); (2) Tris-HCl solution (50 mM, pH 7.5) containing 10 mM MnCl2 as a cofactor (30 μL); (3) a solution containing an inhibitor or its solvent (as a control) (10 μL); (4) a solution of L-arginine (pH 9.7, 0.05 M) (20 μL). The microplate was incubated for 60 min in a 37 °C water bath after covering with a plastic sealing film. The addition of 120 μL of H2SO4/H3PO4/H2O (1:3:7) quenched the reaction. The microplate was left on ice for 5 min. Thereafter, 10 μL of α-isonitrosopropiophenone (5% in absolute ethanol (EtOH)) was added, and the microplate was heated in an oven at 100 °C for 45 min, after covering with an aluminum sealing film. As the colored product is photosensitive, the microplate was kept in the dark until reading. After 5 min of centrifugation and cooling for another 10 min, the microplate was shaken for 2 min and the absorbance was read at 550 nm and 25 °C using a spectrophotometer (Synergy HT BioTeck). The level of arginase activity was expressed as relative to the “100% arginase activity”. The experiment was repeated three times with each microplate under similar experimental conditions (e.g., various inhibitor concentrations.)
The percentage of arginase inhibitory activity and IC50 values was evaluated as previously described. A stock solution (70 mM) was prepared in DMSO and stored at −26 °C for each compound. These stock solutions were extemporaneously and successively diluted in ultrapure H2O to afford the following concentrations: 7000, 2100, 700, 210, 70, 21, 7, 2.1, and 0.7 μM, corresponding to final concentrations in the wells of 1000, 300, 100, 30, 10, 3, 1, 0.3, 0.1 μM, respectively. For a first screening, compounds were tested at final concentrations of 10 and 100 μM. Each solution was incubated with arginase for 1 h, as described above. The percentage of arginase inhibition was calculated by conversion of the resulting absorbance (relative to the absorbance of controls with only solvent (“100% arginase activity”)) and plotted on a semilogarithmic scale. The IC50 values were estimated by nonlinear sigmoidal curve-fitting by using Prism (GraphPad Software, version 5.0.3).

SMILES	IC50 [µM]
COc1cc2c3c(cc(O)cc3c1)C(C)(C)c1c-2ccc(OC)c1O [Compound 1, 4,6-dihydroxy-12-dimethyl-3,10-dimethoxybenzophenanthrene]	28.8 ± 2.5
COc1cc2c3c(c1)O[C@H](C)CC3(C)c1cc3oc(OC)ccc-3c1O2 (stereo partly drawn) [Compound 2, thunbergin B]	74.1 ± 3.7

Results, then the molecule that gave them:

IC50 [µM]	SMILES
17.6 ± 2.2	Oc1ccc(/C=C/c2cc(O)cc3c2[C@H](c2cc(O)cc(O)c2)[C@@H](c2ccc(O)c(O)c2)O3)cc1 (stereo in doubt) [Compound 4, trans-scirpusin A]
105 ± 4.1	Oc1ccc(/C=C/c2cc(O)cc(O)c2)cc1 [Compound 3, trans-resveratrol]
57.1 ± 2.3	O=C1/C(=C/c2ccc(O)c(O)c2)Oc2cc(O)cc(O)c21 [Compound 5, aureusidin]
19.4 ± 1.3	Oc1cc(O)cc(-c2c(-c3ccc(O)c(O)c3)oc3cc4oc(-c5ccc(O)c(O)c5)c(-c5cc(O)cc(O)c5)c4c(/C=C/c4ccccc4)c23)c1 [Compound 6, trans-cyperusphenol A]
60.6 ± 3.1	O=c1cc(-c2ccc(O)c(O)c2)oc2cc(O)cc(O)c12 [Compound 7, luteolin]
